Measured values taken from patent US20140004108A1, “Methods for Modulation of Autophagy Through the Modulation of Autophagy-Enhancing Gene Products” (HARVARD MEDICAL SCHOOL, priority 2009, published 2014).
Entries after “also recorded” stand apart in the source; their conditions may differ.

Assays:
Assay type in all cases: cell-based, human
[1] = tested on: H4 cells stably expressing LC3-GFP; test: LC3-GFP translocation to autophagosomes, image-based autophagy assay; conditions: for autophagy as measured by LC3-GFP translocation: H4 LC3-GFP cells grown in serum-free medium, treated with cytokine
Method: (§1) H4 human neuroblastoma cells were cultured under standard tissue culture conditions in DMEM media supplemented with 10% normal calf serum, penicillin/streptomycin, sodium pyruvate (Invitrogen) and, where appropriate, 0.4-1.2 mg/mL G418. LC3-GFP and FYVE-dsRed H4 cells were generated as described in Zhang et al., PNAS, 102, 15545-15550 ([…]). To create a stable line expressing Lamp1, H4 cells were transfected with Lamp1-RFP plasmid using TRANSIT_LT1® transfection reagent (Mirus), followed by selection with 0.4 mg/mL G418. Bcl-2 expressing cell lines were created by infecting LC3-GFP and FYVE-dsRed H4 cells with pBabe-Bcl-2 retrovirus, followed by selection with 1 μg/mL puromycin.
(§2) For the cytokine assays, cells were seeded at 0.5×10^5 in full medium in either 24-well (western) or 96-well (LC3-GFP quantification) plates. After 24 hours, cells were washed in PBS and serum-free OPTIMEM™ medium (Invitrogen) was added along with the indicated growth factors and/or cytokines for an additional 24 hours. Growth factors and cytokines used include human TNFα (Cell Sciences), human LIF (GeneScript Corporation), human FGF2 (ProSpec), human IGF1 (ProSpec), human SDF1 (Prospec) and human CLCF1 (R&D Systems). To induce starvation, cells were cultured for 24 hours in full media, washed in PBS and cultured for additional 4 hours in HBSS media (Invitrogen).
(§3) For western blot analysis, lysosomal protease inhibitor E64d (Sigma) was added at a concentration of 10 μg/mL for the last 8-12 hours before cell lysis.
For the primary screens, an arrayed library of 21,121 siRNA pools covering the majority of the human genome were used (Dharmacon siARRAY™ siRNA library (Human Genome, G-005000-05), Thermo Fisher Scientific, Lafayette, Colo.). Each pool contained of 4 unique oligonucleotides targeting different sequences from the same gene. Each assay plate also included the following controls: non-targeting siRNA, mTOR siRNA, ATG5 siRNA and PLK1 siRNA (a transfection efficiency control). siRNAs were transiently transfected in triplicate into H4 cells stably expressing a LC3-GFP reporter at a final concentration of 40 nM using reverse transfection with the […]® reagent (Qiagen). […]® reagent was diluted 1:20 in DMEM and 8 μl of the mixture was added to wells of 384 well plates. The plates were centrifuged at 1,000 rpm, after which 2 μl of 1 μM arrayed siRNA pools were added to each well. After 30 minutes of incubation, 500 cells in 40 μl of media were added to the wells. Cells were incubated for 72 hours under standard culture conditions, counterstained with 0.5 μM Hoechst 33342 (Invitrogen) for 1 hour and fixed by addition of 30 μl of 8% paraformaldehyde. After 30 minutes, cells were washed 3 times with PBS prior to analysis.
For secondary screens, a siRNA library was used in which the 4 siRNAs of each siRNA pool were separated into individual wells. The cells were transfected and treated as in the primary screen, except that siRNAs were used at a final concentration of 30 nM (1.5 μL/well of 1 uM stock) and […]® reagent was diluted 1:30 in OPTIMEM™ (Invitrogen). The secondary screen transfections were done in 2 rounds: in the first one a 1:1 mixture of H4 cells stably expressing LC3-GFP with FYVE-dsRed was transfected in triplicate; in the second round a 1:1 mixture of H4 cells expressing LC3-GFP with Lamp1-RFP was transfected in duplicate. All tertiary characterization screens were done in duplicate using a mixture of LC3-GFP and FYVE-dsRed cells. Each assay plate included 10-12 wells of non-targeting siRNA as well as mTOR, ATG5, PLK1 and, depending on screen, Vps34 or SOD1 siRNA controls.
(§4) For high-throughput screens, cells were imaged on an automated CellWoRx microscope (Applied Precision) at 10× magnification using 2 wavelengths (350 nm to detect Hoechst, 488 nm to detect LC3-GFP) for the primary screens and 3 wavelengths (350 nm, 488 nm and 550 nm to detect Lamp1-RFP or FYVE-dsRed) for the secondary screens.

LC3 = test: Western blot of autophagy markers (LC3 II, p62, Atg12-Atg5); conditions: for autophagy by LC3 western blot (LC3 II/tubulin ratio): 100 ng/mL IGF1, 50 ng/mL FGF2, LIF or CLCF1, 10 μg/mL E64d, with or without 50 nM rapamycin pre-treatment
Method: as §2, §3
(§5) For western blots, cells were lysed in Lammeli sample buffer, resolved on a 10-12% SDS-PAGE gel and transferred to PVDF membrane. The following antibodies were used: LC3 (Novus), p62 (Pharmigen), phospho-S6K (Thr389), phospho-Akt (Ser473), phospho-Stat3 (Tyr705), RelA, Sod1, phospho-PTEN (Ser380/Thr382/383) (all Cell Signaling), Bcl-2 (Santa Cruz), all at 1:1000, phospho-S6 (Ser235/236) (Cell Signaling) and phospho-ERK 1/2 (Sigma) at 1:2000, tubulin (Sigma) at 1:5000. Where indicated, blots were quantified using NIH ImageJ64 software.

GRP78 and GRP94 = test: In-cell-western of KDEL (GRP78/GRP94) expression, ER stress; conditions: H4 cells
Method: For quantitative analysis of mTORC1 signaling and induction of endoplasmic reticulum stress, in-cell-western analysis of rpS6 phosphorylation and KDEL (GRP78/GRP94) expression (‘KDEL’ disclosed as SEQ ID NO: 2), respectively, were performed. H4 cells were cultured in 384-well plates and fixed and counterstained as described for the LC3-GFP assay. Following imaging, the cells were permeabilized in PBS containing 0.2% Tx-100 and stained with ALEXA FLOUR®—680NHS-ester, a non-specific lysine reactive probe used to measure relative cell number, at 20 ng/mL for 15 minutes. Subsequently, the cells were washed with PBS containing 0.2% Tx-100 and incubated for 30 minutes in blocking buffer (LICOR® Blocking Buffer diluted 1:1 with PBS+0.2% Tx-100). Cells were then incubated overnight with a rabbit-anti-rpS6 phospho-235/236 (Cell Signaling Technologies), or mouse-anti-KDEL (Stressgen) antibody (‘KDEL’ disclosed as SEQ ID NO: 2) diluted 1:1000 in blocking buffer. […] The intensities of both, the rpS6 phospho-235/236 or KDEL staining (‘KDEL’ disclosed as SEQ ID NO: 2), and of NHS-ester staining were integrated, and the normalized phospho-S6 or KDEL score (‘KDEL’ disclosed as SEQ ID NO: 2) were calculated by dividing phospho-rpS6 or KDEL intensity (‘KDEL’ disclosed as SEQ ID NO: 2) by NHS-ester intensity. […]

H4 cells = test: Western blot of signalling phosphorylation (phospho-ERK1/2, RSK, Stat3, Akt, Foxo3a, S6K); conditions: for activating phosphorylation of Stat3: H4, 50 ng/mL LIF or CLCF1
Method: as §2, §5

type III PI3 kinase = test: FYVE-dsRed vesicle recruitment (PtdIns3P levels); conditions: FYVE-dsRed cells, 3MA 10 mM 8 hours or NAC
Method: as §1, §4

TNFα
autophagy (LC3-GFP), higher doses ([1]; H4 LC3-GFP cells in defined medium, higher doses of TNFα): up-regulation of autophagy
autophagy (LC3-GFP), low doses ([1]; H4 LC3-GFP cells in defined medium, low doses of TNFα): down-regulation of autophagy
p62 level by western blot (LC3; H4 cells, low levels of TNFα (5 ng/ml, FIG. 31B)): significant accumulation of p62

tunicamycin [reference compound]
autophagy after ER stress inducer ([1]; H4 cells): increase in autophagy
levels of GRP78 and GRP94 (ER stress markers) (GRP78 and GRP94): dose-dependent up-regulation of GRP78 and GRP94

LIF: human LIF (GeneScript Corporation); leukemia inhibitory factor
autophagy as measured by LC3-GFP translocation [1]: significant down-regulation of autophagy
autophagy by LC3 western blot (LC3 II/tubulin ratio) (LC3; H4, serum-free): able to suppress autophagy in the absence and presence of rapamycin
activating phosphorylation of Stat3 (H4 cells): increased activating phosphorylation of Stat3

O=c1[nH]c2ccccc2n1C1CCN(Cc2ccc(-c3nc4cc5[nH]cnc5cc4nc3-c3ccccc3)cc2)CC1 [Akt inhibitor VIII, reference compound]
inhibition of autophagy by IGF1, effect of Akt inhibitor (LC3; 100 ng/mL IGF1, LC3 western): prevented inhibition of autophagy by IGF1
phosphorylation of Foxo3a and S6 kinase (H4 cells; IGF1-treated cells with Akt inhibitor VIII): attenuated phosphorylation of both Foxo3a and the mTORC1 target S6 kinase

N#CC(=C(/N)Sc1ccccc1N)/C(C#N)=C(/N)Sc1ccccc1N [UO126, reference compound]
inhibition of autophagy by FGF2, effect of MEK inhibitor (LC3; H4, serum-free, 50 ng/mL FGF2, 10 μg/mL E64d, pre-treatment with UO126): attenuated inhibition of autophagy; also recorded: prevented

SDF1: human SDF1 (Prospec); chemokine SDF1 (CXCL12)
autophagy as measured by LC3-GFP translocation [1]: significant down-regulation of autophagy

IGF1: human IGF1 (ProSpec); insulin-like growth factor 1
autophagy as measured by LC3-GFP translocation [1]: significant down-regulation of autophagy
autophagy by LC3 western blot (LC3 II/tubulin ratio) (LC3; H4, serum-free): able to suppress autophagy in the absence and presence of rapamycin
phosphorylation of Akt and Foxo3a (H4 cells; in both the absence and presence of rapamycin, 100 ng/mL IGF1): increased

FGF2: human FGF2 (ProSpec); fibroblast growth factor 2 (basic)
autophagy as measured by LC3-GFP translocation [1]: significant down-regulation of autophagy
autophagy by LC3 western blot (LC3 II/tubulin ratio) (LC3; H4, serum-free): able to suppress autophagy in the absence and presence of rapamycin
phospho-ERK1/2 and phospho-RSK levels (H4 cells; H4, serum-free, 50 ng/mL FGF2): increased level of phospho-ERK1/2 and phospho-RSK

CC(=O)N[C@@H](CS)C(=O)O [NAC, N-acetyl-L-cysteine, reference compound]
induction of autophagy caused by knock-down of Sod1 ([1]; H4 LC3-GFP, with antioxidant NAC 2.5 mM): significantly attenuated induction of autophagy
Aβ-induced accumulation of PtdIns3P in presence of inhibitor or antioxidant (type III PI3 kinase): suppressed

B1: CLCF1: human CLCF1 (R&D Systems); cardiotrophin-like cytokine factor 1 (protein, UniProt Q9UBD9 28-225, looked up)
Cardiotrophin-like cytokine …: LNRTGDPGPGPSIQKTYDLTRYLEHQLRSLAGTYLNYLGPPFNEPDFNPPRLGAETLPRATVDLEVWRSLNDKLRLTQNYEAYSHLLCYLRGLNRQAATAELRRSLAHFCTSLQGLLGSIAGVMAALGYPLPQPLPGTEPTWTPGPAHSDFLQKMDDFWLLKELQTWLWRSAKDFNRLKKKMQPPAAAVTLHLGAHGF
autophagy as measured by LC3-GFP translocation [1]: significant down-regulation of autophagy
autophagy by LC3 western blot (LC3 II/tubulin ratio) (LC3; H4, serum-free): able to suppress autophagy in the absence and presence of rapamycin
activating phosphorylation of Stat3 (H4 cells): increased activating phosphorylation of Stat3
